This passage reports IC50 and in-vitro cytotoxic activities results from patent publication EP4778932A1 (priority 2023, dated 2025).

Type in all cases: cell-based
In series [1] the test system is MDA-MB-231. The series is described as follows: cells. The conditions noted are these: Homo sapiens, read-out: IC50 (nM) MDA-MB-231. As to the method: (§1) MDA-MB-231, OV90, and NCI-N87 cells at defined cell densities (1,500 cells per well, 80 µL volume) were seeded into 96-well plates. The cells were cultured overnight in a constant-temperature incubator (37°C, 5% CO2). Ecteinascidin derivative solutions at a maximum concentration of 2 mM were first prepared in DMSO, and serial 1:4 gradient dilutions were performed. 1 µL of each DMSO-prepared dilution was added to 99 µL of PBS containing 10% FBS per well and mixed thoroughly. The diluted solutions (2 µL of diluted solution and 18 µL of PBS containing 10% FBS per well) were then co-incubated with the cells (37°C, 5% CO2) for five days, after which CellTiter-Glo reagent (40 µL per well) was added, and […] values were measured using an i3x microplate reader.

In series [2] the test system is NCI-N87. The series is described as follows: cells. The conditions noted are these: Homo sapiens, read-out: IC50 (nM) NCI-N87. On the procedure:
as §1

Series [3] deals with OV90. The series is described as follows: cells. The following applies: Homo sapiens, OV-90, 120 h, read-out: IC50 (nM) OV90. As to the method: as §1
For series [4], the system named is MDA-MB-231, OV90, and NCI-N87 cells. The series is described as follows: Tumor cell proliferation inhibition assay of novel ecteinascidin derivatives, summary over the three cell lines. The conditions noted are these: compared with trabectedin and lurbinectedin. As to the method: as §1, with “The” for “MDA-MB-231, OV90, and NCI-N87 cells at defined cell densities (1,500 cells per well, 80 µL volume) were seeded into 96-well plates. The”

[5] abbreviates: 120 h, MDA-MB-231 cells, five days co-incubation.
[6] abbreviates: 120 h, NCI-N87 cells, five days co-incubation.
Where [7] appears, read: OV90 cells, five days co-incubation.

Where two headings read alike, the source gives them in different places.

As a reminder, the IC50 is the concentration that gives 50% inhibition. As to `COc1ccc2[nH]c3c(c2c1)CCN[C@]31CS[C@@H]2c3c(OC(C)=O)c(C)c4c(c3[C@H](COC1=O)N1[C@@H]2[C@H]2c3c(cc(C)c(OC)c3O)C[C@@H]([C@@H]1O)N2C)OCO4` [Lurbinectedin, reference compound], the IC50 in series [1] (setting [5]) was 1 to 10 nM; in series [2] (setting [6]), less than 1 nM; in series [3] (setting [7]), 1 to 10 nM.
In the case of `COc1c(C)cc2c(c1O)[C@@H]1[C@@H]3[C@@H]4SC[C@]5(NCCc6cc(N)c(F)cc65)C(=O)OC[C@@H](c5c6c(c(C)c(OC(C)=O)c54)OCO6)N3[C@@H](C#N)[C@H](C2)N1C` [P1], the IC50 in series [1] (setting [5]), in series [2] (setting [6]) and in series [3] (setting [7]) was less than 1 nM in each case. The in-vitro cytotoxic activities result in series [4] was “superior to or comparable to those of trabectedin and lurbinectedin”.
`COc1c(C)cc2c(c1O)[C@@H]1[C@@H]3[C@@H]4SC[C@]5(NCCc6cc(N)c(N(C)C)cc65)C(=O)OC[C@@H](c5c6c(c(C)c(OC(C)=O)c54)OCO6)N3[C@@H](C#N)[C@H](C2)N1C` [P5]: the half-inhibitory concentration (IC50) in series [1] (MDA-MB-231, 120 h) was in the range of 1 to 10 nM; in series [2] (NCI-N87, 120 h), 1 to 10 nM; in series [3], 1 to 10 nM.
As to `COc1c(C)cc2c(c1O)[C@@H]1[C@@H]3[C@@H]4SC[C@]5(NC[C@@H](O)c6cc(N)ccc65)C(=O)OC[C@@H](c5c6c(c(C)c(OC(C)=O)c54)OCO6)N3[C@@H](C#N)[C@H](C2)N1C` [P9], the IC50 in series [1] (setting [5]), in series [2] (setting [6]) and in series [3] (setting [7]) was less than 1 nM each time. In series [4], the in-vitro cytotoxic activities result is “superior to or comparable to those of trabectedin and lurbinectedin”.
On to `COc1c(C)cc2c(c1O)[C@@H]1[C@@H]3[C@@H]4SC[C@]5(NC[C@H](O)c6cc(N)ccc65)C(=O)OC[C@@H](c5c6c(c(C)c(OC(C)=O)c54)OCO6)N3[C@@H](C#N)[C@H](C2)N1C` [P10], for which the IC50 in series [1] (setting [5]), in series [2] (setting [6]) and in series [3] (setting [7]) was less than 1 nM throughout. Besides, the in-vitro cytotoxic activities entry in series [4] is “superior to or comparable to those of trabectedin and lurbinectedin”.
In the case of `COc1cc2c(cc1N)[C@H](O)CN[C@]21CS[C@@H]2c3c(OC(C)=O)c(C)c4c(c3[C@H](COC1=O)N1[C@@H]2[C@H]2c3c(cc(C)c(OC)c3O)C[C@@H]([C@@H]1C#N)N2C)OCO4` [P12], the IC50 in series [1] (setting [5]), in series [2] (setting [6]) and in series [3] (setting [7]) was less than 1 nM in each case. Besides, the in-vitro cytotoxic activities entry in series [4] is “superior to or comparable to those of trabectedin and lurbinectedin”.
On to `COc1cc2c(cc1N)[C@@H](O)CN[C@]21CS[C@@H]2c3c(OC(C)=O)c(C)c4c(c3[C@H](COC1=O)N1[C@@H]2[C@H]2c3c(cc(C)c(OC)c3O)C[C@@H]([C@@H]1C#N)N2C)OCO4` [P13], for which the IC50 in series [1] (setting [5]), in series [2] (setting [6]) and in series [3] (setting [7]) was less than 1 nM in each case. Besides, the in-vitro cytotoxic activities entry in series [4] is “superior to or comparable to those of trabectedin and lurbinectedin”.
For the compound `COc1cc2c(cc1N)[C@@H](OS(=O)(=O)O)CN[C@]21CS[C@@H]2c3c(OC(C)=O)c(C)c4c(c3[C@H](COC1=O)N1[C@@H]2[C@H]2c3c(cc(C)c(OC)c3O)C[C@@H]([C@@H]1C#N)N2C)OCO4` [P14], the IC50 in series [1] (setting [5]), in series [2] (setting [6]) and in series [3] (setting [7]) was greater than 200 nM in each case.
Take `COc1cc2c(cc1NC(=O)CO)CCN(C)[C@]21CS[C@@H]2c3c(OC(C)=O)c(C)c4c(c3[C@H](COC1=O)N1[C@@H]2[C@H]2c3c(cc(C)c(OC)c3O)C[C@@H]([C@@H]1C#N)N2C)OCO4` [P90]: the IC50 in series [1] (setting [5]), in series [2] (setting [6]) and in series [3] (setting [7]) was less than 1 nM throughout.
In the case of `COc1cc2c(cc1N)[C@H](CC1CC1)CN[C@]21CS[C@@H]2c3c(OC(C)=O)c(C)c4c(c3[C@H](COC1=O)N1[C@@H]2[C@H]2c3c(cc(C)c(OC)c3O)C[C@@H]([C@@H]1C#N)N2C)OCO4` [P261], the IC50 in series [1] (setting [5]) was in the range of 1 to 10 nM; in series [2] (setting [6]), 10 to 200 nM; in series [3] (setting [7]), 10 to 200 nM.
Take `COc1cc2c(cc1N)[C@@H](CC1CC1)CN[C@]21CS[C@@H]2c3c(OC(C)=O)c(C)c4c(c3[C@H](COC1=O)N1[C@@H]2[C@H]2c3c(cc(C)c(OC)c3O)C[C@@H]([C@@H]1C#N)N2C)OCO4` [P262]: the IC50 in series [1] (setting [5]), in series [2] (setting [6]) and in series [3] (setting [7]) was 1 to 10 nM in each case.
Turning to `COc1cc2c(cc1O)C(N)CN[C@]21CS[C@@H]2c3c(OC(C)=O)c(C)c4c(c3[C@H](COC1=O)N1[C@@H]2[C@H]2c3c(cc(C)c(OC)c3O)C[C@@H]([C@@H]1C#N)N2C)OCO4` (some centres unmarked) [T2], the IC50 in series [1] (setting [5]) was 1 to 10 nM; in series [2] (setting [6]), 10 to 200 nM; in series [3] (setting [7]), 10 to 200 nM.
Take `COc1c(C)cc2c(c1O)[C@@H]1[C@@H]3[C@@H]4SC[C@]5(NCCc6cc(NC(=O)[C@H]7C[C@@H](O)C7)c(F)cc65)C(=O)OC[C@@H](c5c6c(c(C)c(OC(C)=O)c54)OCO6)N3[C@@H](C#N)[C@H](C2)N1C` [T5]: the IC50 in series [1] (setting [5]) was less than 1 nM; in series [2] (setting [6]), 1 to 10 nM; in series [3] (setting [7]) it was less than 1 nM.
Turning to `COc1c(C)cc2c(c1O)[C@@H]1[C@@H]3[C@@H]4SC[C@]5(NCCc6c5ccc(N)c6O)C(=O)OC[C@@H](c5c6c(c(C)c(OC(C)=O)c54)OCO6)N3[C@@H](C#N)[C@H](C2)N1C` [T6], the IC50 in series [1] (setting [5]), in series [2] (setting [6]) and in series [3] (setting [7]) was 1 to 10 nM each time.
`COc1c(C)cc2c(c1O)[C@@H]1[C@@H]3[C@@H]4SC[C@]5(NCCc6c5ccc(NC(=O)CO)c6O)C(=O)OC[C@@H](c5c6c(c(C)c(OC(C)=O)c54)OCO6)N3[C@@H](C#N)[C@H](C2)N1C` [T7]: the IC50 in series [1] (setting [5]), in series [2] (setting [6]) and in series [3] (setting [7]) was 1 to 10 nM throughout.
As for `COc1c(C)cc2c(c1O)[C@@H]1[C@@H]3[C@@H]4SC[C@]5(NCCc6cc(N)c(O)cc65)C(=O)OC[C@@H](c5c6c(c(C)c(OC(C)=O)c54)OCO6)N3[C@@H](C#N)[C@H](C2)N1C` [T8], the IC50 in series [1] (setting [5]), in series [2] (setting [6]) and in series [3] (setting [7]) was 1 to 10 nM each time.
Take `COc1c(C)cc2c(c1O)[C@@H]1[C@@H]3[C@@H]4SC[C@]5(NCCc6cc(NC(=O)CO)c(O)cc65)C(=O)OC[C@@H](c5c6c(c(C)c(OC(C)=O)c54)OCO6)N3[C@@H](C#N)[C@H](C2)N1C` [T9]: the IC50 in series [1] (setting [5]), in series [2] (setting [6]) and in series [3] (setting [7]) was 1 to 10 nM throughout.
Consider `COc1cc2c(cc1NC(=O)CO)C1(CC1)CN[C@]21CS[C@@H]2c3c(OC(C)=O)c(C)c4c(c3[C@H](COC1=O)N1[C@@H]2[C@H]2c3c(cc(C)c(OC)c3O)C[C@@H]([C@@H]1C#N)N2C)OCO4` [T11], for which the IC50 in series [1] (setting [5]), in series [2] (setting [6]) and in series [3] (setting [7]) was less than 1 nM in each case.
As for `COc1c(C)cc2c(c1O)[C@@H]1[C@@H]3[C@@H]4SC[C@]5(NCCc6cc(N)cc(O)c65)C(=O)OC[C@@H](c5c6c(c(C)c(OC(C)=O)c54)OCO6)N3[C@@H](C#N)[C@H](C2)N1C` [T12], the IC50 in series [1] (setting [5]), in series [2] (setting [6]) and in series [3] (setting [7]) was 1 to 10 nM each time.
Take `COc1c(C)cc2c(c1O)[C@@H]1[C@@H]3[C@@H]4SC[C@]5(NCCc6cc(NC(=O)CO)cc(O)c65)C(=O)OC[C@@H](c5c6c(c(C)c(OC(C)=O)c54)OCO6)N3[C@@H](C#N)[C@H](C2)N1C` [T13]: the IC50 in series [1] (setting [5]), in series [2] (setting [6]) and in series [3] (setting [7]) was 10 to 200 nM throughout.
As to `COc1c(C)cc2c(c1O)[C@@H]1[C@@H]3[C@@H]4SC[C@]5(NCCc6cc(N)c(OC)c(OC)c65)C(=O)OC[C@@H](c5c6c(c(C)c(OC(C)=O)c54)OCO6)N3[C@@H](C#N)[C@H](C2)N1C` [T14], the IC50 in series [1] (setting [5]) was in the range of 1 to 10 nM; in series [2] (setting [6]), 10 to 200 nM; in series [3] (setting [7]), 10 to 200 nM.
Turning to `COc1c(C)cc2c(c1O)[C@@H]1[C@@H]3[C@@H]4SC[C@]5(NCCc6cc(NC(=O)CO)c(OC)c(OC)c65)C(=O)OC[C@@H](c5c6c(c(C)c(OC(C)=O)c54)OCO6)N3[C@@H](C#N)[C@H](C2)N1C` [T15], the IC50 in series [1] (setting [5]), in series [2] (setting [6]) and in series [3] (setting [7]) was 10 to 200 nM in each case.
As for `CNc1cc2c(cc1OC)[C@@]1(CS[C@@H]3c4c(OC(C)=O)c(C)c5c(c4[C@H](COC1=O)N1[C@@H]3[C@H]3c4c(cc(C)c(OC)c4O)C[C@@H]([C@@H]1C#N)N3C)OCO5)NCC2` [T16], the results for the IC50 in series [1] (setting [5]), in series [2] (setting [6]) and in series [3] (setting [7]) were 1 to 10 nM, less than 1 nM and 1 to 10 nM, respectively.
As to `COc1c(C)cc2c(c1O)[C@@H]1[C@@H]3[C@@H]4SC[C@]5(NCC(C)(C)c6c5ccc(N)c6OC)C(=O)OC[C@@H](c5c6c(c(C)c(OC(C)=O)c54)OCO6)N3[C@@H](C#N)[C@H](C2)N1C` [T18], the results for the IC50 in series [1] (setting [5]), in series [2] (setting [6]) and in series [3] (setting [7]) were less than 1 nM, less than 1 nM and 1 to 10 nM, respectively.
